Usually melting point stands for the temperature, or range, at which the solid turns liquid.

Where two headings read alike, the source gives them in different places.

These results are taken from patent US9365590B2, “Selenophene-fused aromatic compound and manufacturing method thereof” (Industry-Academia Cooperation Group of Sejong University, priority 2011, dated 2016).

One data set deals with SK-OV-3 cancer cells. Put plainly: SK-OV-3 cancer cell proliferation inhibition (WST-1 assay). The following applies: Homo sapiens, read-out: Proliferation inhibition effect (10 nM; %). In kind it is cell-based. The method, then:
Meanwhile, in the present Example, proliferation inhibition effect of the compound in accordance with Comparative Example 1 and the compounds corresponding to Entry 59 to Entry 72 on SK-OV-3 cancer cells were checked, and a result thereof was as shown in [Table 5].
<Experiment Method of Proliferation Inhibition Effect>
SK-OV-3 cells floated on McCoy's 5A Medium in which 10% FBS and 1% P/S were added were inoculated into a 96-Well plate at a concentration of 3×10^4/100 μl per Well and cultured at 37° C. for 4 hours and then, treated with 100 μl of each compound, so that a final concentration of 10 nM was attained. Then, the cells were cultured at 37° C. for 72 hours. As a control, the cells were treated with DMSO as a solvent of the compounds to attain a final concentration of 0.1%. Each well was treated with 10 μl of a WST-1 assay reagent (iTSBio, Korea), and cultured at 37° C. for 2 hours. Then, absorbance was measured with an automatic Microplate Reader at 450 nm. A cell growth inhibition level was calculated by {(A450control−A450compound)/A450control}*100.

The compound `CCOC(=O)c1cc2cc(N)ccc2[se]1` yielded a melting point of 78 to 80 °C. Take `COc1ccc2c(O)cc3c(c2c1)[C@H](CCl)CN3C(=O)c1cc2cc(OC)c(OC)c(OC)c2[nH]1` [Comparative Example 1, seco-MCBI-TMI, reference compound]: in the data set with SK-OV-3 cancer cells (SK-OV-3, 72 h), the inhibition at 0.01 µM came out at 80%. As for `COc1ccc2c(O)cc3c(c2c1)[C@H](CCl)CN3C(=O)c1cc2cc([N+](=O)[O-])ccc2[se]1` [Entry 59, seco-MCBI-Nitro-Selenophene], in the data set on SK-OV-3 cancer cells (SK-OV-3, 72 h), the inhibition at 0.01 µM worked out at 74%. Regarding `COc1ccc2[se]c(C(=O)N3C[C@@H](CCl)c4c3cc(O)c3ccc(OC)cc43)cc2c1` [Entry 60, seco-MCBI-Methoxy-Selenophene], the inhibition at 0.01 µM with SK-OV-3 cancer cells (SK-OV-3, 72 h) was found to be 78%. Same read-out and setting: in the case of `COc1ccc2c(O)cc3c(c2c1)[C@H](CCl)CN3C(=O)c1cc2cc(NC(C)=O)ccc2[se]1` [Entry 61, seco-MCBI-Acetamino-Selenophene] it was 81%.

Consider `COc1ccc2c(c1)C13CC1CN(C(=O)c1cc4cc(NC(C)=O)ccc4[se]1)C3=CC2=O` (stereo not drawn) [Entry 62], for which the inhibition at 0.01 µM in the data set on SK-OV-3 cancer cells (SK-OV-3, 72 h) amounted to 86%.

On to `COc1ccc2c(O)cc3c(c2c1)[C@H](CCl)CN3C(=O)c1cc2sccc2[se]1` [Entry 63], for which the inhibition at 0.01 µM with SK-OV-3 cancer cells (SK-OV-3, 72 h) was 78%.

With `COc1ccc2cc(C(=O)N3C[C@@H](CCl)c4c3cc(O)c3ccc(OC)cc43)[se]c2c1` [Entry 64], the inhibition at 0.01 µM in the data set on SK-OV-3 cancer cells (SK-OV-3, 72 h) stood at 85%. For the compound `CCCCCC(=O)Nc1ccc2[se]c(C(=O)N3C[C@@H](CCl)c4c3cc(O)c3ccc(OC)cc43)cc2c1` [Entry 66], the inhibition at 0.01 µM with SK-OV-3 cancer cells (SK-OV-3, 72 h) was 87%.

As to `COc1ccc2c(O)cc3c(c2c1)[C@H](CCl)CN3C(=O)c1cc2cc(OC)c(OC)cc2[se]1` [Entry 67], the inhibition at 0.01 µM in the data set with SK-OV-3 cancer cells (SK-OV-3, 72 h) turned out to be 78%. Same read-out and setting: the same measure for `COc1ccc2c(O)cc3c(c2c1)[C@H](CCl)CN3C(=O)c1cc2cccnc2[se]1` [Entry 68]: 82%; for `COc1ccc2c(O)cc3c(c2c1)[C@H](CCl)CN3C(=O)c1cc2occc2[se]1` [Entry 69]: 73%. Turning to `COc1cc2cc(C(=O)N3C[C@@H](CCl)c4c3cc(O)c3ccccc43)[nH]c2c(OC)c1OC` [Entry 70, CBI-TMI, reference compound], the inhibition at 0.01 µM with SK-OV-3 cancer cells (SK-OV-3 cells, final concentration of 10 nM, cultured 72 hours, WST-1, absorbance 450 nm, vs DMSO control) turned out to be 80%. Consider `CCCC(=O)Nc1ccc2[se]c(C(=O)N3C[C@@H](CCl)c4c3cc(O)c3ccccc43)cc2c1` [Entry 71], for which the inhibition at 0.01 µM in the data set with SK-OV-3 cancer cells (SK-OV-3, 72 h) was found to be 73%. Take `CCCC(=O)Nc1ccc2[se]c(C(=O)N3C[C@H]4C[C@@]45C3=CC(=O)c3ccccc35)cc2c1` [Entry 72]: the inhibition at 0.01 µM in the data set with SK-OV-3 cancer cells (SK-OV-3, 72 h) stood at 75%.
